{
  "source": "paper PMC10828444",
  "about": "“Selective inhibition of overactive warmth-sensitive Ca^2+-permeable TRPV3 channels by antispasmodic agent flopropione for alleviation of skin inflammation” (The Journal of Biological Chemistry, 2023)",
  "key": {"hTRPV1": {"target": "T1, hTRPV1 (Homo sapiens, UniProt Q8NER1)", "T1 construct": "expressed in transfected cells; host or cells: HEK293", "experiment": "Whole-cell patch-clamp of TRPV1 currents evoked by capsaicin in HEK293 cells", "assay_type": "cell-based", "conditions": "flopropione 100 μM, 1 μM capsaicin", "method": "(§1) HEK293 cells were cultured in Dulbecco’s modified Eagle’s medium (DMEM, Gibco) containing 4.5 g/L D-glucose supplemented with 10% fetal bovine serum based at 37 °C with 5% CO2. For whole-cell patch-clamp recordings, cells were grown in glass coverslips for 24 h before transient transfections with 3000 ng cDNAs of hTRPV3 (gene accession number BC104866.1), hTRPV1 (accession number NM_080704.3), mTRPV2 (accession number NM_011706.2), hTRPV4 (accession number NM_021625.5), hTRPA1 (accession number NM_007332.3) and hTRPM8 (accession number NM_024080.5) into HEK293 cells grown in a 35-mm cell culture dish using Lipofectamine 2000 (Invitrogen). Cells were used 18 ∼ 24 h after transfection. All WT or mutant hTRPV3 plasmids were validated by DNA sequencing.\n(§2) Whole-cell patch clamp recordings of wild-type and mutants were carried out at room temperature using the HEKA EPC10 amplifier powered by PatchMaster software (HEKA) or MultiClamp 700B amplifier driven by Clampex 11.0.3 software. The borosilicate glass pipettes were pulled and fire-polished to 3∼6 MΩ using a DMZ universal electrode puller (Zeitz-Instruments, GmbH). Pipette solution and bath solution both contained (in mM): 130 NaCl, three HEPES, and 0.2 EDTA (pH = 7.4). Cell membrane potential was held at 0 mV, currents were recorded at a voltage ramp from −100 to +100 mV for 500-ms and analyzed at ±80 mV."}, "hTRPV3 R509A mutant": {"target": "T2, hTRPV3 R509A mutant (Homo sapiens, UniProt Q8NET8, R509A)", "T2 construct": "expressed in transfected cells; host or cells: HEK293", "T2 sequence (Q8NET8 1-790 R509A)": "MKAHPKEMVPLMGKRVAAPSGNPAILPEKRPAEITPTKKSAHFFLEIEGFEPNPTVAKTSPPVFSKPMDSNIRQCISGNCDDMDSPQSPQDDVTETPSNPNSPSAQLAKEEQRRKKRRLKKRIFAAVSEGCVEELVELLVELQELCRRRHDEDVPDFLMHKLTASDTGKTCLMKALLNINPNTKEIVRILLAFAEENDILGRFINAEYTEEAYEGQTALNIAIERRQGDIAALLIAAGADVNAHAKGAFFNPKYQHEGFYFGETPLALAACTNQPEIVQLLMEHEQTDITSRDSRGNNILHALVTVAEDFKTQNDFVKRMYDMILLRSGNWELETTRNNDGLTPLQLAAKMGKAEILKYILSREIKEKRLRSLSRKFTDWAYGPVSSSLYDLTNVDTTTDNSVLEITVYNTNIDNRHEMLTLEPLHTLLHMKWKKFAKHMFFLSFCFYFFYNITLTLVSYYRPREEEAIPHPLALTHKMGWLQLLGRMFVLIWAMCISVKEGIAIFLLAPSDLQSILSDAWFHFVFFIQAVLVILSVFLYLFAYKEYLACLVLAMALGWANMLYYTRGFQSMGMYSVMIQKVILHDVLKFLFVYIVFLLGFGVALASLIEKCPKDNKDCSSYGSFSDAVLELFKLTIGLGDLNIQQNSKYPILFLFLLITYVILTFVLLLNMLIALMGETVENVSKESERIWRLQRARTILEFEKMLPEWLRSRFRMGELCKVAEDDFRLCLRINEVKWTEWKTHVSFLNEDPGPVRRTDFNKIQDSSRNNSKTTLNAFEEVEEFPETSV", "experiment": "Whole-cell recordings of TRPV3 R509A mutant", "assay_type": "cell-based", "conditions": "100 μM flopropione, 2-APB", "method": "as §1, §2"}, "[1]": {"tested_on": "DNFB-induced dorsal skin inflammation", "experiment": "Mouse model of dorsal skin inflammation (atopic dermatitis) induced by DNFB", "assay_type": "in vivo, C57BL/6J mice", "method": "(§3) Mice were placed in a gas anesthesia device (SurgiVet) for anesthesia before the hair on the back was removed with a razor, followed by the application of an appropriate amount of hair removal cream to gently shave off the remaining hair. For generation of atopic dermatitis and ear swelling, chemical skin sensitizer DNFB (1-Fluoro-2,4-dinitrobenzene), commonly known as Sanger’s Reagent, was dissolved in a solvent (acetone/olive oil = 4/1, v/v) and 0.5% DNFB in 100 μl was applied once topically to the back and right ear for skin sensitization 1 day after acclimatization for hair removal ([43]) without any treatment for next 3 days. On the fifth and sixth days, 0.2% DNFB in 50 μl was applied topically once a day for 2 days for challenge before different concentrations of flopropione in 100 μl were topically applied once a day for four consecutive days. First application of topical flopropione started half an hour after the last application of 0.2% DNFB challenge. For the effect of flopropione on skin inflammation, topical flopropione (0.1 mM, 1 mM or 10 mM) in 100 μl was applied into ear and shaved area of dorsal skin by swabbing once a day for four consecutive days.\n(§4) The score contents and criteria include (1): skin erythematous/bleeding (2), skin scratches/erosion (3), skin edema (4), skin scaling or lichenoid change ([44]). Each symptom was scored from 0 to 3 (none, 0; mild, one; moderate, two; severe, (3). The final score was defined as the sum of individual scores on a scale from 0 to 12. Mouse ear thickness was measured once a day for continuous 5 days with the first measurement of ear thickness 30 min after the last application of 0.2% DNFB using vernier caliper.\nMice were anesthetized with 1.0% isoflurane before sacrifice 24 h after the last treatment ([31], [32], [43]). Mouse dorsal skin was removed with scissors and forceps before fixed with 4% paraformaldehyde. Paraffin-embedded tissues were sectioned and stained with hematoxylin and eosin. Stained sections were observed using bright-field microscopy (ECLIPSE Ti-S, Nikon) and CCD-camera (DS-Ri2, Nikon)."}, "[2]": {"tested_on": "DNFB-induced ear swelling", "experiment": "Mouse model of ear swelling induced by DNFB", "assay_type": "in vivo, C57BL/6J mice", "conditions": "topical 0.1, 1, 10 mM on right ear for 4 days, vs DNFB alone", "method": "as §3, with “First application of topical flopropione started half an hour after the last application of 0.2% DNFB challenge. For the effect of flopropione on skin inflammation, topical flopropione (0.1 mM, 1 mM or 10 mM) in 100 μl was applied into ear and shaved area of dorsal skin by swabbing once a day for four consecutive days.” left out\nas §4"}},
  "data": [
    {"smiles": "CCC(=O)c1c(O)cc(O)cc1O", "note": "[flopropione]", "values": [
      {"measurement": "effect on TRPV1 currents", "setting": "hTRPV1", "result": "no effect"},
      {"measurement": "sensitivity of R509A mutant to flopropione inhibition", "setting": "hTRPV3 R509A mutant", "result": "maintained the sensitivity to flopropione inhibition"},
      {"measurement": "dorsal skin inflammation (phenotype)", "setting": "[1]; topical 0.1–10 mM, once a day for 4 days, vs DNFB alone", "result": "alleviated the skin inflammation in concentration-dependent manner"},
      {"measurement": "dermatitis scores", "setting": "[1]; topical 0.1–10 mM, vs DNFB alone group, n = 5", "result": "significantly reduced the dermatitis scores"},
      {"measurement": "skin hyperkeratosis and lesion (histology, dorsal skin thickness)", "setting": "[1]; topical 0.1 ∼ 10 mM, H&E sections, vs DNFB alone", "result": "reduced mouse skin hyperkeratosis and lesion"},
      {"measurement": "ear swelling (ear thickness, vernier caliper)", "setting": "[2]", "result": "significantly reduced ear swelling"}
    ]}
  ]
}
